The values below are quoted from earlier work in US20110146671A1, “PHARMACEUTICAL COMPOSITIONS AND METHODS OF DELIVERING THE SAME” (priority 2006, published 2011).

The test system of this data set is patients with perennial allergic rhinitis. The conditions noted are these: 1% solution in normal saline, nasal wash every 48 hours for 4 weeks, versus placebo wash (normal saline only).

Each structure is given as a SMILES string. Where a name gives a salt, the structure may show the parent alone.

Consider `CN[C@@H](C)[C@H](O)c1ccccc1` [ephedrine hydrochloride], for which the “peak nasal inspiratory flow rates” value is listed as “significant improvement” and the symptom scores result is on record as “significant improvement”.
